Experimental data published in PubChem BioAssay (NCI).
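Five compound concentrations were applied to cells in 96-well plates for 48 hours; endpoints were derived by simple linear interpolation of the resulting dose-response curve. The concentration for 50% growth inhibition is given as GI50. TGI: total growth inhibition.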

Legend:
Assay in all cases: NCI anticancer screen, dose series, 48 h
OVCAR-4 ovarian = system: OVCAR-4 ovarian
UO-31 renal = system: UO-31 renal
HL-60(TB) leukemia = system: HL-60(TB) leukemia
SK-MEL-5 melanoma = system: SK-MEL-5 melanoma
SNB-75 CNS = system: SNB-75 CNS
A498 renal = system: A498 renal
U251 CNS = system: U251 CNS
HOP-92 NSCLC = system: HOP-92 NSCLC
K-562 leukemia = system: K-562 leukemia
SK-MEL-28 melanoma = system: SK-MEL-28 melanoma

Structure (SMILES)	GI50 (OVCAR-4 ovarian) [µM]	TGI (OVCAR-4 ovarian) [µM]	GI50 (UO-31 renal) [µM]	TGI (UO-31 renal) [µM]	GI50 (HL-60(TB) leukemia) [µM]	TGI (HL-60(TB) leukemia) [µM]	GI50 (SK-MEL-5 melanoma) [µM]	TGI (SK-MEL-5 melanoma) [µM]	GI50 (SNB-75 CNS) [µM]	TGI (SNB-75 CNS) [µM]	GI50 (A498 renal) [µM]	TGI (A498 renal) [µM]	GI50 (U251 CNS) [µM]	TGI (U251 CNS) [µM]	GI50 (HOP-92 NSCLC) [µM]	TGI (HOP-92 NSCLC) [µM]	GI50 (K-562 leukemia) [µM]	TGI (K-562 leukemia) [µM]	GI50 (SK-MEL-28 melanoma) [µM]	TGI (SK-MEL-28 melanoma) [µM]
O=c1[nH]c(=O)n(C2CC(O)C(CO)O2)cc1CO (stereo not drawn)	> 100	> 100	> 100	> 100	> 100	> 100	> 100	> 100	> 100	> 100	> 100	> 100	2.95	> 100	43.3	> 100	> 100	> 100	> 100	> 100
CCOC(=O)C(C)(C)Oc1ccc2c(C)c(-c3ccc(Cl)cc3)c(=O)oc2c1		> 100		> 100		> 100		35		> 100		> 100		> 100				> 100		> 100
O=C(N/N=C1/C(=O)N(c2ccc(Cl)cc2Cl)C(=O)C(=O)C1c1nc2ccccc2o1)c1ccccc1O (stereo not drawn)								40.2		> 100		88.2				93.5		> 100		71
O=C1[C@@H]2C3c4ccccc4C([C@@H]2C(=O)N1c1ccccc1)S3(=O)=O				> 100		> 100		> 100		> 100				> 100		> 100		> 100		
c1ccc(SC2CCSc3ccccc3C2Sc2ccccc2)cc1 (stereo not drawn)		> 100		> 100		> 100		> 100		> 100		> 100		> 100		> 100		> 100		
O=c1cc(-c2ccccc2)[nH]c2c(S)cccc12		> 100				> 100		> 100		> 100				> 100		> 100		> 100		> 100
CC(=C\c1ccccc1)/C=C(\C#N)C(N)=O				> 10				> 10		> 10		> 10		> 10						> 10
CCOC(=O)NC(=O)c1cn(CCOC(=O)NCCCCCCNC(=O)OCCn2cc(C(=O)NC(=O)OCC)c(=O)[nH]c2=O)c(=O)[nH]c1=O		> 100		> 100		> 100		> 100		> 100		> 100		> 100				> 100		> 100
Cc1cn2c(/C=C3\C(=O)Nc4ccc(O)cc43)c(-c3ccc(Cl)cc3)nc2s1	7.31	27.8	5.37	59.9	14.4	40.7	10.1	25.2	6.27	23.7	16.8	38.8	14.3	28.9			10.4	40.9	12.2	28.1
O=C(CSc1nnc(-c2ccc(N=Cc3ccc(Cl)cc3)cc2)o1)Nc1ccc(Cl)cc1		> 100		> 100		> 100		> 100		> 100				> 100				> 100		> 100
CC(=O)O[C@H]1CCC2[C@@H]3CCC4=C(O)c5nocc5C[C@]4(C)C3CC[C@@]21C (stereo partly drawn)		> 100		> 100				> 100		> 100		> 100		> 100		> 100		> 100		> 100
Cc1ccc(Cn2c(C)nc3c2C(=O)c2ccccc2C3=O)cc1		63.4		> 100		41		19.5		36.3				22.8				> 100		> 100
O=C(NCCCCN=c1cccccc1NCCCCNC(=O)OCc1ccccc1)OCc1ccccc1		57.5		21.4		31.3		33.1		39.6				32.1		20.1		33.4		39.6
COc1ccc(/C(=N\NC(=O)C(N)=O)C(c2ccc(OC)cc2)C2(O)C(=O)Nc3c(Cl)cccc32)cc1 (stereo not drawn)		> 100		> 100		> 100		> 100		> 100				> 100		> 100				> 100
Nc1nc(N)c(N=Nc2ccc([As](=O)(O)O)cc2)c(=O)[nH]1		> 100		> 100		> 100		> 100		> 100		> 100		> 100				> 100		> 100
CCC1C2C=CC(CC2)N1S(=O)(=O)c1ccc(C)cc1 (stereo not drawn)		> 100		39.2		19.5		36.1				> 100						> 100		
O=C(NC(=O)c1cn(CCNCCO)c(=O)[nH]c1=O)OCc1ccccc1		> 100				> 100		> 100		> 100				> 100		> 100		> 100		> 100
CN(C)c1c([O-])c(=[N+](C)C)c1=O				> 100		> 100				> 100		> 100		> 100		> 100		> 100		> 100
COc1ccc(NC(=O)/C(N=O)=C(/C)O)cc1				> 100		> 100		> 100		> 100		> 100		> 100		> 100		> 100		> 100
Cc1c(Cl)cccc1N1C(=O)C(Cl)=C(Cl)C1=O		> 100		> 100				> 100		> 100		> 100		> 100		> 100		> 31.6		> 100

Structure (SMILES)	GI50 (OVCAR-4 ovarian) [µM]	TGI (OVCAR-4 ovarian) [µM]	GI50 (UO-31 renal) [µM]	TGI (UO-31 renal) [µM]	GI50 (HL-60(TB) leukemia) [µM]	TGI (HL-60(TB) leukemia) [µM]	GI50 (SK-MEL-5 melanoma) [µM]	TGI (SK-MEL-5 melanoma) [µM]	GI50 (SNB-75 CNS) [µM]	TGI (SNB-75 CNS) [µM]	GI50 (A498 renal) [µM]	TGI (A498 renal) [µM]	GI50 (U251 CNS) [µM]	TGI (U251 CNS) [µM]	GI50 (HOP-92 NSCLC) [µM]	TGI (HOP-92 NSCLC) [µM]	GI50 (K-562 leukemia) [µM]	TGI (K-562 leukemia) [µM]	GI50 (SK-MEL-28 melanoma) [µM]	TGI (SK-MEL-28 melanoma) [µM]
C[C@H]1NC(=O)C2CCCCN2C(=O)CN(C)C(=O)CNC(=O)C2CCCCN2C(=O)[C@@H](NC(=O)c2nc3ccccc3cc2O)[C@@H](C)NC(=O)C2CCCCN2C(=O)CN(C)C(=O)CNC(=O)[C@@H]2CCCCN2C(=O)C1NC(=O)c1nc2ccccc2cc1O (stereo partly drawn)		5.48		0.984		4.72				0.39				36.6				1.1		0.465
Cc1ccc(NC(=O)C2C(=O)N(c3ccc(C)c(C)c3)C(=O)C2N=N)cc1C (stereo not drawn)		> 100		> 100		> 100		> 100		> 100		> 100		> 100		> 100				> 100
O=C(Nc1cc(Cl)ccc1Cl)c1cc2cccc(Cl)c2oc1=O						> 100		> 100		> 100				> 100				> 100		> 100
CCCNC(=S)/N=C/c1c(O)c2ccccc2[nH]c1=O		> 100		> 100		> 100		> 100		> 100		> 100		> 100		> 100		> 100		
NS(=O)(=O)c1ccc(N(/C=C/C(=O)C(F)(F)F)CC(=O)c2ccc(Cl)cc2)cc1	60	> 100	45.3	> 100			38.9	> 100			> 100	> 100	33	> 100	22.3	86.7	33.5	93.6	> 100	> 100
CCc1c(OC(C)=O)c2c(NC3OC(COC(C)=O)C(OC(C)=O)C(OC(C)=O)C3OC(C)=O)nc(OC)nc2oc1=O (stereo not drawn)		> 100		> 100		> 100		> 100		> 100		> 100		> 100				> 100		
COc1ccc(C(O)c2nccn2C)c(OC)c1 (stereo not drawn)		> 100		> 100		> 100		> 100		> 100				> 100		> 100		> 100		> 100
CCc1cccc(C)c1NC(=O)C(=O)Cc1nc2ccccc2o1		> 100		> 100		> 100						> 100		> 100		> 100		> 100		> 100
COC(=O)[C@]1(C)CCCC2(C)C1CC[C@H]1C=C(C)[C@H]3CCC12C3 (stereo partly drawn)		> 100		> 100		> 100		> 100		> 100				> 100		> 100		> 100		> 100
COc1ccc2oc(-c3cccnc3)cc(=O)c2c1		> 100		69.2		> 100				> 100		> 100		> 100		> 100		> 100		> 100
C=CC(=O)N1CCC(C2CCNc3c(C(N)=O)c(-c4ccc(Oc5ccccc5)cc4)nn32)CC1 (stereo not drawn)	6.25	95.4	1.94	24.3	14.6	40.3	10.6	22.9	8.31	38.6	2.33	7.19	19.7	96.3	2.47	15.7			18.7	45.1
CC1=CC(=O)[C@@H](O)[C@]2(C)[C@H]3[C@@]4(O)OC[C@]35[C@H]([C@@H](C)[C@H]4O)[C@@H](O)C(=O)O[C@@H]5C[C@@H]12		6.66		6.71				0.369		0.759		4.45		0.379		2.51		> 100		0.691
COC1[C@@H](OC(C)=O)[C@@H](NC(=O)C(Cl)(Cl)Cl)C(I)[C@@H](N2C(=O)c3ccccc3C2=O)[C@H]1OC (stereo partly drawn)		> 100				> 100		> 100		> 100		> 100		> 100		> 100		> 100		> 100
CCOc1ccc(N2C(=O)/C(=C/c3ccc(N(CCC#N)CCC#N)cc3)N=C2c2cc([N+](=O)[O-])ccc2Cl)cc1		> 100		> 100		> 100		34.6		> 100		> 100		> 100				81.2		41.8
CCOc1ccc2nc(S/C(=C/C=C(C#N)C#N)c3ccc(C)cc3)sc2c1	94.4	> 100	36.2	> 100	4.55	20.4	22.1	57.4			42.3	> 100	29.4	> 100			5.28	55	31.1	> 100
O=c1c2ccccc2sc2cccc(NCCCN3CCN(CCCNc4cccc5sc6ccccc6c(=O)c45)CC3)c12		> 100		> 100		> 100		> 100		> 100		> 100		> 100				> 100		> 100
C=CCCCCCCCCCCC1(O)C=CC2=[N+](CCCCCN=C(N)N)CCCN21 (stereo not drawn)	4.84	19.9	17	36.5			9.93	25.1	8.62	25.9			1.49	13.9		0.759	2.76	15.9	13.6	31.8
O=C1c2ccccc2C2(O)c3cc4ccccc4cc3OC12O (stereo not drawn)		> 100						86.9		> 100		> 100		> 100		80.4		> 100		> 100
COC12C=C/C(=C(/C(=O)OCc3ccncc3)C(=O)CCCCCCCCC3(OC)C=C/C(=C(/C(=O)OCc4ccncc4)C(=O)CCCCCCCC1)O3)O2	0.583	3.41	0.641	1.4	0.371	1.96	0.247	0.867	0.779	1.97	0.78	1.48	0.5	1.46	1.23	2.36			0.29	1.79
Cc1ccc(S(=O)(=O)N/N=C/c2oc(-c3ccncc3)c(-c3ccncc3)c2[N+](=O)[O-])cc1		> 100		> 100		> 100		> 100		> 100		> 100		> 100				> 100		> 100
